≈ marks a conversion by molar mass, not a printed value. Where two headings read alike, the source gives them in different places. Some results are limits rather than exact numbers.

The values below come from patent publication US9481639B2, “Substituted tetracycline compounds for treatment of inflammatory skin disorders” (Paratek Pharmaceuticals, Inc., priority 2006, dated 2016).

In series [1] the test system is B. thetaiotaomicron ATCC 29741. The experiment in a line: Antibacterial MIC, CLSI broth microdilution. The format is cell-based. How it is done:
(§1) Gram (−) and gram (+) antibacterial minimum inhibitory concentration (MIC) values (μg/mL) were obtained using CLSI methodology for anti-bacterial susceptibility testing. On each day of testing, serial dilutions of compounds were prepared in microdilution plates using a Tecan robotic workstation. Mueller Hinton broth cultures of representative sensitive and resistant gram negative strains were grown or adjusted to match the turbidity of a 0.5 McFarland standard. 1:200 dilutions were made in an appropriate broth (cation supplemented Mueller Hinton broth) to allow a final inoculum of 1×10^5 cfu. Plates were incubated at 35° C. in ambient air for 18-24 hours, were read spectrophotometrically and checked manually for evidence of bacterial growth. The lowest dilution of compound that inhibited growth was recorded as the MIC. Lysed horse blood was used to supplement broth for testing S. pneumoniae. The MIC's for each compound were assessed against S. aureus, S. pneumoniae, P. acnes, E. coli and B. theta.

For series [2], the system named is carrageenan induced rat paw inflammation. In words: Rat carrageenan-induced paw edema inflammatory model. The format is in vivo. The note with it: for 50% effective concentration (EC50), carrageenan induced paw inflammation: IP 30 minutes before carrageenan, paw volume 3 hours after. Here is the method:
The model used a sub-plantar injection of carrageenan in the rat to induce an inflammatory response. The test compound or saline (control) was administered IP 30 minutes before a subplantar injection of carrageenan (1.5 mg/0.1 mL). Paw volume was measured […] before subplantar injection and again 3 hours after the injection of carrageenan using a plethysmometer. Significant differences as determined by a Kruskal-Wallis One Way ANOVA are noted between the inflammation of the untreated controls versus treated animals […]
On the technique in general: The carrageenan paw model is a standard test of acute inflammation.

The test system of series [3] is S. pneumoniae 157E - Strep. In words: Antibacterial MIC, CLSI broth microdilution. The format is cell-based. The note with it: Streptococcus pneumoniae, 157ESTREP; broth supplemented with lysed horse blood. Here is the method: as §1
(Dilution methods test growth across graded concentrations, often in twofold steps.)

Series [4] relates to P. acnes ATCC 6919. In words: Antibacterial MIC, CLSI broth microdilution. The format is cell-based. Particulars: Cutibacterium acnes, ATCC6919. Here is the method:
as §1

For series [5], the system named is P. acnes ATCC 11827. In words: Antibacterial MIC, CLSI broth microdilution. The format is cell-based. Particulars: Cutibacterium acnes, ATCC11827. How it is done: as §1
Series [6] has as its system E. coli MG. 1655. In words: Antibacterial MIC, CLSI broth microdilution. The format is cell-based. The note with it: Escherichia coli, 35° C., 18-24 hours. Here is the method:
as §1

In series [7] the test system is E. coli ATCC 25922. In words: Antibacterial MIC, CLSI broth microdilution. The format is cell-based. Particulars: Escherichia coli, ATCC25922; 35° C., 18-24 hours. How it is done: as §1
In series [8] the test system is S. aureus RN450. The experiment in a line: Antibacterial MIC, CLSI broth microdilution. The format is cell-based. The note with it: Staphylococcus aureus, 35° C., 18-24 hours. Here is the method: as §1
The subject of series [9] is S. aureus RN450. In words: In vivo anti-bacterial activity, S. aureus lethal infection model. The note with it: Staphylococcus aureus, sc, mice; for responders at 5 mg/kg: lethal IP S. aureus RN450, single subcutaneous dose 5 mg/kg, survival at 24 hours, read-out: Percent Survival. How it is done: Groups of five mice were injected intraperitoneally with a lethal dose of S. aureus RN450 in a medium of mucin. Mice were evaluated at 24 hours to determine survival. […] In some instances, a dose response study was performed with the compound such that a PD50 (a dose of compound that protects 50% of the animals) could be calculated.

The nature of series [10]: in vitro. The format is cell-based. How it is done: Mammalian cell cytotoxicity was assessed to evaluate potential in vivo risks associated with the tetracycline compounds of the invention. A soluble, non-toxic redox dye (“Resazurin”; Alamar Blue) was used to assess a tetracycline compound's effect on cellular metabolism. At the onset of the experiment, cultures of mammalian COS-1 or CHO cells were washed, trypsinized, and harvested. […] On the next day, serial dilutions of test drug were prepared under sterile conditions and transferred to cell plates. Plates were then incubated under the above conditions for 24 hours. Following the incubation period, the media/drug was aspirated, and 50 μL of resazurin was added. Plates were then incubated under the above conditions for 2 hours and then in the dark at room temperature for an additional 30 minutes. Fluorescence measurements were taken (excitation 535 nm, emission 590 nm) and toxic effects in treated versus control cells were compared based on the degree of fluorescence in each well.

Where [11] appears, read: Bacteroides thetaiotaomicron, ATCC29741, read-out: MIC B. thetaiotaomicron ATCC 29741.
Setting [12] is: Bacteroides thetaiotaomicron, ATCC29741; read-out: MIC B. thetaiotaomicron ATCC 29741.

In general, MIC refers to the lowest concentration that inhibits growth of the organism. `CN(C)c1ccc(O)c2c1C[C@H]1C[C@H]3[C@H](N(C)C)C(O)=C(C(N)=O)C(=O)[C@@]3(O)C(O)=C1C2=O` [Minocycline, reference compound]: in series [1] (setting [11]), the MIC is 4 to 8 µg/mL (≈ 8.74 to 17.5 µM). Besides, the “50% effective concentration (EC50), carrageenan induced paw inflammation” value in [2] is recorded as “approximately 50 mg/kg”.
By IC50 is commonly meant the concentration needed to halve the response being measured. `CCO/N=C(/C)c1ccc(O)c2c1CC1CC3[C@H](N(C)C)C(O)=C(C(N)=O)C(=O)[C@@]3(O)C(O)=C1C2=O` (some centres unmarked) [Compound A]: the MIC in series [3] is below 4 µg/mL; in series [4], below 4 µg/mL; in series [1] (setting [12]) it was above 8 µg/mL; in series [5] it was below 4 µg/mL; in series [6], 4 to 8 µg/mL (≈ 8.01 to 16 µM); in series [7], below 4 µg/mL. In addition, the MIC in series [8] is below 4 µg/mL. Besides, the “modulation of carrageenan induced inflammation compared with reference tetracycline” value in [2] (IP, various doses, A vs doxycycline (FIG. 1), P vs minocycline (FIG. 2)) is recorded as “improved activity”. Moreover, the responders at 5 mg/kg in series [9] amounted to 100%. Further, the IC50 at 24 h in [10] (African green monkey) and in [10] (Chinese hamster) was below 35 µg/mL throughout.
For the molecule `CC(=NOC(C)(C)C)c1cc(N)c(O)c2c1C[C@H]1C[C@H]3[C@H](N(C)C)C(O)=C(C(N)=O)C(=O)[C@@]3(O)C(O)=C1C2=O` [Compound Q, (4S,4aS,5aR,12aS)-9-Amino-7-(1-tert-butoxyimino-ethyl)-4-dimethylamino-3,10,12,12a-tetrahydroxy-1,11-dioxo-1,4,4a,5,5a,6,11,12a-octahydro-naphthacene-2-carboxylic acid amide], the MIC in [3] was below 4 µg/mL; in [4], below 4 µg/mL; in series [1] (setting [12]), 4 to 8 µg/mL (≈ 7.37 to 14.7 µM); in [5], below 4 µg/mL; in series [6], 4 to 8 µg/mL (≈ 7.37 to 14.7 µM); in series [7], 4 to 8 µg/mL (≈ 7.37 to 14.7 µM). In addition, in series [8], the MIC was below 4 µg/mL. The responders at 5 mg/kg in series [9] was 100%. The ED50 in series [9] (lethal IP S. aureus RN450, subcutaneous, 24 hours, read-out: PD50 (dose that protects 50% of the animals)) came to 0.45 mg/kg. Besides, the IC50 at 24 h in series [10] (African green monkey) and in series [10] (Chinese hamster) was below 35 µg/mL throughout.
Consider `C[C@H]1c2cccc(O)c2C(=O)C2=C(O)[C@]3(O)C(=O)C(C(N)=O)=C(O)[C@@H](N(C)C)[C@@H]3[C@@H](O)[C@@H]21` [Doxycycline, reference compound], for which the MIC in [1] (setting [11]) was in the range of 4 to 8 µg/mL (≈ 9 to 18 µM). In series [2], the “50% effective concentration (EC50), carrageenan induced paw inflammation” value was “approximately 50 mg/kg”.
